Measured values published in PubChem BioAssay AID1884 (NMMLSC, 2009).
Calls of active or inactive are those of the source. How the calls were made is not given here.

Molecular target: Regulator of G-protein signaling 19 (Homo sapiens) (UniProt P49795)
Experiment: RGS19-Gαo interaction regulators, potency – biochemical, multiplexed bead flow cytometry, dose response (AID 1884)
Conditions: bead-based flow cytometry RGS19-Galphao binding; for Ki: measured here: Ki for RGS19-Galphao

Sequence of Regulator of G-protein signaling 19 (Homo sapiens) (P49795 whole entry, looked up): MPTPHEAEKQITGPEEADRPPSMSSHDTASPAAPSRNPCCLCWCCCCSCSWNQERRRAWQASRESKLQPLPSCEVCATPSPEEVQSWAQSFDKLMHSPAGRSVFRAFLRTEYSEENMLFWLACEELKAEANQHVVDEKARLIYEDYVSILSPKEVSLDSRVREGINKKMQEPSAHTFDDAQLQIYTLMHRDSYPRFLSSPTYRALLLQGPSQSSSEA

| SMILES | Ki [µM] | EC50 |
| --- | --- | --- |
| CN(C)c1ncc(C2=C(Cl)C(=O)C(N3CCCC3)=C(Cl)C2=O)s1 | 0.79 | – |
| NS(=O)(=O)c1ccc(N/N=C/c2ccc(O)c(O)c2O)c([N+](=O)[O-])c1 | 0.63 | 0.68 µM |
| CCOC(=O)C1CCCN(C(=O)Cn2sc3nc(C)cc(C)c3c2=O)C1 (configuration not stated) | 2.1 | – |
| CC(=O)N1CC[n+]2c(-c3ccc([N+](=O)[O-])cc3)csc21 | 7.17 | – |
| CC(C)Sc1nc2ccc(N3C(=O)C4CCCCC4C3=O)cc2s1 (configuration not stated) | – | > 30 µM (inactive) |
| NS(=O)(=O)c1ccc(CNC(=O)/C=C/c2ccco2)cc1 | 10.7 | – |
| CCOC(=O)c1sc(NC(=O)CSc2nnc(Cc3ccccc3)o2)c(C#N)c1C | 1.33 | – |
| COCCCNC(=O)c1ccc2c3c(onc13)-c1ccccc1C2=O | 3.63 | – |
| Cc1ccccc1-n1sc2cc(F)ccc2c1=O | 0.43 | – |
| CN(C)S(=O)(=O)c1cccc(-n2sc3ccccc3c2=O)c1 | 0.15 | – |
| CN=c1scc(C)n1/N=C/c1ccc(O)c(O)c1O | 2.64 | – |
| CC(NC(=O)c1sc2cc([N+](=O)[O-])ccc2c1Cl)C(C)(C)C (configuration not stated) | 0.96 | – |
| O=c1c2ccccc2sn1-c1ccc(S(=O)(=O)N2CCCC2)cc1 | 0.95 | – |
| Cc1[nH]n(-c2ccccc2)c(=S)c1C=Nc1cccc([N+](=O)[O-])c1 | 1.59 | – |
| CCN(CC)S(=O)(=O)c1cccc(C(=O)N/N=C/c2ccc(O)c(O)c2O)c1 | 2.03 | – |
| CCN=c1scc(C)n1/N=C/c1ccc(O)c(O)c1O | 4.33 | – |
| Cc1cc(C)c2c(=O)n(CC(=O)Nc3cccc(F)c3)sc2n1 | 1.16 | – |
| CCN(CC)S(=O)(=O)c1cccc(-c2n[nH]c(=S)n2/N=C/c2ccc(C(=O)OC)cc2)c1 | 5.82 | – |
| CCC(=O)NC1=C(Cl)C(=O)C(NC(=O)CC)=C(Cl)C1=O | 0.76 | – |
| COc1ccc(OC)c(CCNC(=O)Cn2sc3nc(C)cc(C)c3c2=O)c1 | 1.14 | – |

| SMILES | Ki [µM] | EC50 |
| --- | --- | --- |
| C/C(=N/NC(=O)c1cc(O)c(O)c(O)c1)c1ccc([N+](=O)[O-])cc1 | 18.7 | – |
| Cc1[nH]n(-c2ccccc2)c(=S)c1C=NCCCN=Cc1c(C)[nH]n(-c2ccccc2)c1=S | 2.63 | – |
| COC(=O)c1c(-c2ccc(C(C)(C)C)cc2)csc1NC(=O)C1C2CCC(O2)C1C(=O)O (configuration not stated) | 7.55 | – |
| CC1(C)OC(=O)C(=Cc2ccc(-c3ccc(S(N)(=O)=O)cc3)o2)C(=O)O1 | 2.87 | – |
| O=C(NCCCN1CCOCC1)c1sc2cc([N+](=O)[O-])ccc2c1Cl | 2.05 | – |
| O=c1c2ccccc2sn1-c1cc(S(=O)(=O)N2CCOCC2)ccc1N1CCOCC1 | 0.11 | – |
| CCCCn1c(-c2csc(C(C)C)c2)n[nH]c1=S | 10.7 | – |
| CC(=O)OCCCNc1cc(Sc2nc3ccccc3s2)c2nonc2c1[N+](=O)[O-] | 0.92 | – |
| COc1ccccc1-n1c(-c2cc(-c3ccco3)[nH]n2)n[nH]c1=S | 13.2 | – |
| CCN1/C(=C/C(C)=C/c2sc3ccccc3[n+]2CC)Sc2ccccc21 | 5.74 | – |
| CCOC(=O)C1=C(C)NC(C)=C(C(=O)OCCNC(=O)c2cccnc2)C1c1cccc([N+](=O)[O-])c1 (configuration not stated) | – | > 30 µM (inactive) |
| Cc1ccc(NC(=O)Cn2sc3nc(C)cc(C)c3c2=O)c(Cl)c1 | 0.47 | – |
| O=C1CCC(=O)N(O)CCCCCNC(=O)CCC(=O)N(O)CCCCCNC(=O)CCC(=O)N(O)CCCCCN1 | 1.93 | – |
| O=C(COc1ccccc1C(=O)N/N=C\c1ccc(O)c(O)c1)N/N=C/c1ccc(O)c(O)c1 | 3.98 | – |
| COC(=O)CCC(=O)Nc1sc(C)c(C)c1C(N)=O | 4.09 | – |
| Cc1cc(C)c2c(=O)n(CC(=O)Nc3ccc(Cl)cc3)sc2n1 | 1.45 | – |
| CCOc1ccccc1-c1c2cc(O)c(=O)cc-2oc2cc(O)c(O)cc12 | 0.93 | – |
| Cc1cccc(N2CCN(C(=O)Cn3sc4nc(C)cc(C)c4c3=O)CC2C)c1 (configuration not stated) | 1.27 | – |
| Cc1ccc(-n2sc3ccccc3c2=O)cc1S(=O)(=O)N1CCCCC1 | 0.57 | – |
| CCc1c(C(=O)Nc2ccccc2)c(C)[nH]c(=S)c1C#N | 10.5 | – |

| SMILES | Ki [µM] | EC50 |
| --- | --- | --- |
| CN1CCN(C2=C(Cl)C(=O)C(c3cnc(N4CCCCC4)s3)=C(Cl)C2=O)CC1 | 0.01 | – |
| CCCNC(=O)Cn1sc2nc(C)cc(C)c2c1=O | 0.93 | – |
| O=C(O[C@@H]1OC2COC(=O)c3cc(O)c(O)c(O)c3-c3c(cc(O)c(O)c3O)C(=O)O[C@@H]([C@H]1O)[C@@H]2O)c1cc(O)c(O)c(O)c1 | 2.98 | – |
| COc1ccc(C2=CC(=O)C=CC2=O)cc1 | 1.84 | – |
| COc1ccc(Br)cc1/C=N/Nc1cccc(C(=O)O)c1 | – | > 30 µM (inactive) |
| O=c1[nH]c(=S)n(Cc2ccco2)c(O)c1C=NCc1cccs1 | – | > 30 µM (inactive) |
| CCOC(=O)/C(C(=O)Nc1ccccc1Cl)=C1/NC(C)(C)Cc2ccccc21 | – | > 30 µM (inactive) |
| O=[N+]([O-])c1ccc(Sc2cccc[n+]2[O-])c2nonc12 | 0.82 | – |
| O=C1CCCC2=C1C(c1cccs1)n1ncnc1N2 (configuration not stated) | – | > 30 µM (inactive) |
| O=c1c2ccccc2sn1-c1cc(S(=O)(=O)N2CCOCC2)ccc1N1CCCC1 | 0.44 | – |
| CN(C)[C@@H]1C(=O)C(C(=O)NCN2CCCC2)=C(O)[C@@]2(O)C(=O)C3=C(O)c4c(O)cccc4[C@@](C)(O)C3CC12 (some centres not stated) | 7.07 | 7.53 µM |
| O=C(O)C[C@@H]1C(=O)O[C@@H]2C(COC(=O)c3cc(O)c(O)c(O)c3)O[C@@H](OC(=O)c3cc(O)c(O)c(O)c3)[C@@H](OC(=O)c3cc(O)c(O)c4c3[C@H]1[C@H](O)C(=O)O4)[C@H]2OC(=O)c1cc(O)c(O)c(O)c1 (some centres not stated) | 5.37 | – |
| CCOC(=O)N=Nc1c(O)n(C)c2ccccc12 | – | > 30 µM (inactive) |
| Cc1cc(Cl)ccc1N=c1ssnc1Cl | 4.13 | – |
| O=c1c2ccccc2sn1-c1ccccc1 | 0.3 | – |
| O=C(Cc1csc(N2CCOCC2)n1)N/N=C/c1ccc(O)c(O)c1O | 4.6 | – |
| CCC(=O)NC(c1ccc(C)cc1)c1cc([N+](=O)[O-])c2cccnc2c1O (configuration not stated) | 2.07 | – |
| O=C1C(Cl)=C(N2CCCCC2)C(=O)C(Cl)=C1c1cnc(N2CCCCC2)s1 | 0.63 | – |
| CC(=O)N(O)CCCCCNC(=O)CCC(=O)N(O)CCCCCNC(=O)CCC(=O)N(O)CCCCCN | 3.84 | – |
| O=C(OCC1O[C@@H](OC(=O)c2cc(O)c(O)c(O)c2)[C@@H](OC(=O)c2cc(O)c(O)c(O)c2)[C@@H](OC(=O)c2cc(O)c(O)c(O)c2)[C@@H]1OC(=O)c1cc(O)c(O)c(O)c1)c1cc(O)c(O)c(O)c1 (some centres not stated) | 4.12 | – |
